# According to patent US8039076B2, “Dye and recording media utilizing the same” (Industrial Technology Research Institute, priority 2006, dated 2011):
# Experiment: Optical measurement of the dyes by UV-visible spectrophotometer
# Assay type: physicochemical
# Design: Max absorption wavelength in MeOH solution: unit: nm
# Details: for absorption coefficient (ε) (* 10^4) / Max absorption wavelength in MeOH solution: MeOH solution
# From the text: Measured by UV-visible spectrophotometer, the optical properties (e.g. maximum absorption wavelength in solution) of the dyes of the preferred embodiments are tabulated in Table 1. In Table 1, dye I-2 has a maximum absorption wavelength of 489 nm in methanol solution, and dye V-2 has a maximum absorption wavelength of 493 nm in methanol solution, respectively.
# [1] = at second printed absorption maximum
Structure (SMILES),absorption coefficient (ε) (* 10^4) (at first absorption maximum),Max absorption wavelength in MeOH solution (first band),maximum absorption wavelength in methanol solution [nm],absorption coefficient (ε) (* 10^4) [1],Max absorption wavelength in MeOH solution (second printed band)
CC1=[N+](C)c2ccccc2C1(C)C [Dye I-2],15.4 * 10^4,489,489,–,–
CC1=[N+](C)c2ccccc2C1(C)C [Dye V-2],19.1 * 10^4,493,493,–,–
c1ccncc1 [I-a],4.98 * 10^4,460,–,–,–
CC1=[N+](Cc2ccc(C(=O)OCC(F)(F)C(C)F)cc2)c2ccccc2C1(C)C (stereo not drawn) [I-b],8.4 * 10^4,495,–,–,–
CCCC[N+](CCCC)(CCCC)CCCC [I-c],6.22 * 10^4,460,–,–,–
CCCCN(CCCC)c1ccc([N+](=C2C=CC(=[N+](c3ccc(N(CCCC)CCCC)cc3)c3ccc(N(CCCC)CCCC)cc3)C=C2)c2ccc(N(CCCC)CCCC)cc2)cc1 [I-d],6.58 * 10^4,460,–,5.11 * 10^4,1067
CC1=[N+](Cc2ccc(C(=O)OCC(F)(F)C(F)F)cc2)c2ccccc2C1(C)C [I-e],7.58 * 10^4,471,–,–,–
CC1=[N+](Cc2ccc(C(=O)OCC(F)(F)C(F)F)cc2)c2ccccc2C1(C)C [I-f],8.08 * 10^4,448,–,–,–
CC1=[N+](Cc2ccc(C(=O)OCC(F)(F)C(F)F)cc2)c2ccccc2C1(C)C [I-g],12.99 * 10^4,463,–,–,–
CC1=[N+](C)c2ccccc2C1(C)C [I-h],18.5 * 10^4,462,–,–,–
CC1=[N+](Cc2ccc(C(=O)OCC(F)(F)C(F)F)cc2)c2ccccc2C1(C)C [I-i],12.2 * 10^4,464,–,–,–
CCCC[N+]1=C(C)C(C)(C)c2ccccc21 [I-j],12.1 * 10^4,459,–,–,–
CCOC(=O)CCCC[N+]1=C(C)C(C)(C)c2ccccc21 [I-k],11.8 * 10^4,460,–,–,–
COS(=O)(=O)CCCC[N+]1=C(C)C(C)(C)c2ccccc21 [I-l],12.5 * 10^4,461,–,–,–
Cc1sc2ccccc2[n+]1C [I-m],10.7 * 10^4,472,–,–,–
CC1=[N+](C)c2ccccc2C1(C)C [I-n],11.5 * 10^4,462,–,–,–
CCCC[N+](CCCC)(CCCC)CCCC [V-a],6.41 * 10^4,461,–,–,–
CC1=[N+](Cc2ccc(C(=O)OCC(C)(C)C(C)C)cc2)c2ccccc2C1(C)C [V-b],9.72 * 10^4,492,–,–,–
CCCCN(CCCC)c1ccc([N+](=C2C=CC(=[N+](c3ccc(N(CCCC)CCCC)cc3)c3ccc(N(CCCC)CCCC)cc3)C=C2)c2ccc(N(CCCC)CCCC)cc2)cc1 [V-c],6.8 * 10^4,461,–,3.8 * 10^4,1067
CCN(CC)CC [V-d],8.45 * 10^4,463,–,–,–
CC1=[N+](C)c2ccccc2C1(C)C [V-e],10.35 * 10^4,490,–,–,–
